These compounds were tested on Blood (assay: Inhibition of TNFalpha release in human whole blood). Details: not given.
Format: functional, tissue-based

| SMILES | IC50 |
| --- | --- |
| C[S+]([O-])c1ccc(-c2nc(-c3ccc(F)cc3)c(-c3ccncc3)[nH]2)cc1 (stereo not given) [SB-203580] | 2300 nM |
| COCCn1c(SC)nc(-c2ccc(F)cc2)c1-c1ccnc(NC2CCCCC2)c1 | 3570 nM |

Each compound was assayed on Blood (assay: Inhibition of IL1-beta release in human whole blood). Details: not given.
Format: functional, tissue-based

| SMILES | IC50 |
| --- | --- |
| C[S+]([O-])c1ccc(-c2nc(-c3ccc(F)cc3)c(-c3ccncc3)[nH]2)cc1 (stereo not given) [SB-203580] | 1980 nM |

Species on record: Homo sapiens
Test: Inhibition of human CAMK2 at 10 uM
Details: not given

| SMILES | inhibition |
| --- | --- |
| C[S+]([O-])c1ccc(-c2nc(-c3ccc(F)cc3)c(-c3ccncc3)[nH]2)cc1 (stereo not given) [SB-203580] | 0% |
| COCCn1c(SC)nc(-c2ccc(F)cc2)c1-c1ccnc(NC2CCCCC2)c1 | 12% |

What follows are compounds tested against RAF proto-oncogene serine/threonine-protein kinase (Homo sapiens) (UniProt P04049) (assay: Inhibition of human c-RAF at 10 uM). Details: not given.
Sequence of RAF proto-oncogene serine/threonine-protein kinase (Homo sapiens) (P04049 whole entry): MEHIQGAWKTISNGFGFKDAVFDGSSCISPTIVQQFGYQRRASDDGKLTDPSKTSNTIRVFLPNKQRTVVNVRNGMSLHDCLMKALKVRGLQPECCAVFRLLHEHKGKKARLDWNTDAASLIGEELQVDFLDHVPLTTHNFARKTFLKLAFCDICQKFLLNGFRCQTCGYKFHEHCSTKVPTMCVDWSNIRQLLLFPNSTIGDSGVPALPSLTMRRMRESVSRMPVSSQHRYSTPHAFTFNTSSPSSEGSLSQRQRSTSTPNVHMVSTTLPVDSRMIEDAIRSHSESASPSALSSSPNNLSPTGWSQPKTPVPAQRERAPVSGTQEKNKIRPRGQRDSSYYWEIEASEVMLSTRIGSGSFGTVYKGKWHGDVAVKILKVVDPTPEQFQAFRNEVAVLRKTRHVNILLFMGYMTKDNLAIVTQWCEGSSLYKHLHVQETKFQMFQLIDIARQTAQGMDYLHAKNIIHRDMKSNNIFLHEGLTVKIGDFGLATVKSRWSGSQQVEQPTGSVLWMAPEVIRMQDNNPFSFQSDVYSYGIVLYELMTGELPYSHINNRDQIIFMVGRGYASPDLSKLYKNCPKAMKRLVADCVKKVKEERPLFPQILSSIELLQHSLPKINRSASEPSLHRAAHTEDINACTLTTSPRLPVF

| SMILES | inhibition |
| --- | --- |
| C[S+]([O-])c1ccc(-c2nc(-c3ccc(F)cc3)c(-c3ccncc3)[nH]2)cc1 (stereo not given) [SB-203580] | 85% |
| COCCn1c(SC)nc(-c2ccc(F)cc2)c1-c1ccnc(NC2CCCCC2)c1 | 0% |

What follows are compounds tested against Mitogen-activated protein kinase 3 (Homo sapiens) (UniProt P27361) (assay: Inhibition of human ERK1 at 10 uM). Details: not given.

| SMILES | inhibition |
| --- | --- |
| COCCn1c(SC)nc(-c2ccc(F)cc2)c1-c1ccnc(NC2CCCCC2)c1 | 0% |

Species on record: Homo sapiens
Test: Inhibition of human JNK1-alpha-1/SAPK1c at 10 uM
Details: not given

| SMILES | inhibition |
| --- | --- |
| C[S+]([O-])c1ccc(-c2nc(-c3ccc(F)cc3)c(-c3ccncc3)[nH]2)cc1 (stereo not given) [SB-203580] | 0% |
| COCCn1c(SC)nc(-c2ccc(F)cc2)c1-c1ccnc(NC2CCCCC2)c1 | 85% |

The compounds below were run against Dual specificity mitogen-activated protein kinase kinase 1 (Homo sapiens) (UniProt Q02750) (assay: Inhibition of human MEK1 at 10 uM). Details: not given.
Sequence of Dual specificity mitogen-activated protein kinase kinase 1 (Homo sapiens) (Q02750 whole entry): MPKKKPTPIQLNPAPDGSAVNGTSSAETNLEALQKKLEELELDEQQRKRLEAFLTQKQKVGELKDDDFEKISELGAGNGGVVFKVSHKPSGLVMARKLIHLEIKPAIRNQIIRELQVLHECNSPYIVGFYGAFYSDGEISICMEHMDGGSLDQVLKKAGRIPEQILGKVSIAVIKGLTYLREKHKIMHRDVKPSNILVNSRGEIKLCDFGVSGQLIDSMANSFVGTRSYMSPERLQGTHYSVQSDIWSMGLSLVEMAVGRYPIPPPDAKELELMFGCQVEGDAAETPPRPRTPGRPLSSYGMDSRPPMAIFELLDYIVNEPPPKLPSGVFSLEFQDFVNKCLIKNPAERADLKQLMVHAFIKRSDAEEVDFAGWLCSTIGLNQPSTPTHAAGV

| SMILES | inhibition |
| --- | --- |
| C[S+]([O-])c1ccc(-c2nc(-c3ccc(F)cc3)c(-c3ccncc3)[nH]2)cc1 (stereo not given) [SB-203580] | 0% |
| COCCn1c(SC)nc(-c2ccc(F)cc2)c1-c1ccnc(NC2CCCCC2)c1 | 0% |

What follows are compounds tested against Mitogen-activated protein kinase 9 (Homo sapiens) (UniProt P45984) (assay: Inhibition of human JNK2alpha2 at 10 uM). Details: not given.

| SMILES | inhibition |
| --- | --- |
| COCCn1c(SC)nc(-c2ccc(F)cc2)c1-c1ccnc(NC2CCCCC2)c1 | 99% |

Each compound was assayed against Mitogen-activated protein kinase 10 (Homo sapiens) (UniProt P53779) (assay: Inhibition of human JNK3 at 10 uM). Details: not given.
Sequence of Mitogen-activated protein kinase 10 (Homo sapiens) (P53779 whole entry): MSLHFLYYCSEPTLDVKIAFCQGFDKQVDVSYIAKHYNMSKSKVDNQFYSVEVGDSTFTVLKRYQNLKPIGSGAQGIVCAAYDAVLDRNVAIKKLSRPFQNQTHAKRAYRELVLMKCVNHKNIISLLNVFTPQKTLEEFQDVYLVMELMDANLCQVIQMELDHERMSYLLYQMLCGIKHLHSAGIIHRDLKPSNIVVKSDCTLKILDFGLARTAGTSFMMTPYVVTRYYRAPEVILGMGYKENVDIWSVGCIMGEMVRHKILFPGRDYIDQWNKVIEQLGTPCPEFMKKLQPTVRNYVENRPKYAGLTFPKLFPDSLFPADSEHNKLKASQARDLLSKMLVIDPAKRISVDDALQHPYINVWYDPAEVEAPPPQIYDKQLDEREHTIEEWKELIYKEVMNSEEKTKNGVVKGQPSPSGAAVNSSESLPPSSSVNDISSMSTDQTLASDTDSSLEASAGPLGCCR

| SMILES | inhibition |
| --- | --- |
| C[S+]([O-])c1ccc(-c2nc(-c3ccc(F)cc3)c(-c3ccncc3)[nH]2)cc1 (stereo not given) [SB-203580] | 86% |
| COCCn1c(SC)nc(-c2ccc(F)cc2)c1-c1ccnc(NC2CCCCC2)c1 | 89% |

Species on record: Homo sapiens
Test: Inhibition of human PKA at 10 uM
Details: not given

| SMILES | inhibition |
| --- | --- |
| C[S+]([O-])c1ccc(-c2nc(-c3ccc(F)cc3)c(-c3ccncc3)[nH]2)cc1 (stereo not given) [SB-203580] | 4% |
| COCCn1c(SC)nc(-c2ccc(F)cc2)c1-c1ccnc(NC2CCCCC2)c1 | 0% |

The compounds below were run against Protein kinase C alpha type (Homo sapiens) (UniProt P17252) (assay: Inhibition of human PKCalpha at 10 uM). Details: not given.

| SMILES | inhibition |
| --- | --- |
| C[S+]([O-])c1ccc(-c2nc(-c3ccc(F)cc3)c(-c3ccncc3)[nH]2)cc1 (stereo not given) [SB-203580] | 11% |
| COCCn1c(SC)nc(-c2ccc(F)cc2)c1-c1ccnc(NC2CCCCC2)c1 | 0% |

Each compound was assayed against RAC-alpha serine/threonine-protein kinase (Homo sapiens) (UniProt P31749) (assay: Inhibition of human PKBalpha at 10 uM). Details: not given.
Sequence of RAC-alpha serine/threonine-protein kinase (Homo sapiens) (P31749 whole entry): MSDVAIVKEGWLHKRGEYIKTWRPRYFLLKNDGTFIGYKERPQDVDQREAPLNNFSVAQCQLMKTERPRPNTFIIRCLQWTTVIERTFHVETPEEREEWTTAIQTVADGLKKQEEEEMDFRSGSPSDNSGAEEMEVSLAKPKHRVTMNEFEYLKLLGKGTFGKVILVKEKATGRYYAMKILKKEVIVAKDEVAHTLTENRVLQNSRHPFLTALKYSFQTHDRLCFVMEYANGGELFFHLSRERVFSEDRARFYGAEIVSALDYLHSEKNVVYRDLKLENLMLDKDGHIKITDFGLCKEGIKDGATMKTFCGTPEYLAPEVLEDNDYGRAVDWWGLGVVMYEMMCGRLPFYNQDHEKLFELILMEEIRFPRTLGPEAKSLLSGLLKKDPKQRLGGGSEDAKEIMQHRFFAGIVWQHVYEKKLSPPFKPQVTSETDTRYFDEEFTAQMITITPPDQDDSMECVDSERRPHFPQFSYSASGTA

| SMILES | inhibition |
| --- | --- |
| C[S+]([O-])c1ccc(-c2nc(-c3ccc(F)cc3)c(-c3ccncc3)[nH]2)cc1 (stereo not given) [SB-203580] | 38% |
| COCCn1c(SC)nc(-c2ccc(F)cc2)c1-c1ccnc(NC2CCCCC2)c1 | 6% |

The compounds below were run against Glycogen synthase kinase-3 beta (Homo sapiens) (UniProt P49841) (assay: Inhibition of human GSK3-beta at 10 uM). Details: not given.
Sequence of Glycogen synthase kinase-3 beta (Homo sapiens) (P49841 whole entry, looked up): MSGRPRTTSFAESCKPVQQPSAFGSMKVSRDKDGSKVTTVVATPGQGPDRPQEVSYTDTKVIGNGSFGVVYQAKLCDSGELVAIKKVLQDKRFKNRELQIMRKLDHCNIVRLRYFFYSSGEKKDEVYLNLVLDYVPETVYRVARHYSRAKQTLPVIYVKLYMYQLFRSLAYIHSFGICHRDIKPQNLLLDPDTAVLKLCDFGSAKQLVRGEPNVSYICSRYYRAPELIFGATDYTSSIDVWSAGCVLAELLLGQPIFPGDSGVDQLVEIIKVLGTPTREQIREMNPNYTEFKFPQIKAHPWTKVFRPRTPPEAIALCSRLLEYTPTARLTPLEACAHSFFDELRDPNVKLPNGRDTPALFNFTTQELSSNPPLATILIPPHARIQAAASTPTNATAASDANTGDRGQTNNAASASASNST

| SMILES | inhibition |
| --- | --- |
| C[S+]([O-])c1ccc(-c2nc(-c3ccc(F)cc3)c(-c3ccncc3)[nH]2)cc1 (stereo not given) [SB-203580] | 34% |
| COCCn1c(SC)nc(-c2ccc(F)cc2)c1-c1ccnc(NC2CCCCC2)c1 | 7% |

These compounds were tested against Rho-associated protein kinase 2 (Homo sapiens) (UniProt O75116) (assay: Inhibition of human ROCK2 at 10 uM). Details: not given.
Sequence of Rho-associated protein kinase 2 (Homo sapiens) (O75116 whole entry, looked up): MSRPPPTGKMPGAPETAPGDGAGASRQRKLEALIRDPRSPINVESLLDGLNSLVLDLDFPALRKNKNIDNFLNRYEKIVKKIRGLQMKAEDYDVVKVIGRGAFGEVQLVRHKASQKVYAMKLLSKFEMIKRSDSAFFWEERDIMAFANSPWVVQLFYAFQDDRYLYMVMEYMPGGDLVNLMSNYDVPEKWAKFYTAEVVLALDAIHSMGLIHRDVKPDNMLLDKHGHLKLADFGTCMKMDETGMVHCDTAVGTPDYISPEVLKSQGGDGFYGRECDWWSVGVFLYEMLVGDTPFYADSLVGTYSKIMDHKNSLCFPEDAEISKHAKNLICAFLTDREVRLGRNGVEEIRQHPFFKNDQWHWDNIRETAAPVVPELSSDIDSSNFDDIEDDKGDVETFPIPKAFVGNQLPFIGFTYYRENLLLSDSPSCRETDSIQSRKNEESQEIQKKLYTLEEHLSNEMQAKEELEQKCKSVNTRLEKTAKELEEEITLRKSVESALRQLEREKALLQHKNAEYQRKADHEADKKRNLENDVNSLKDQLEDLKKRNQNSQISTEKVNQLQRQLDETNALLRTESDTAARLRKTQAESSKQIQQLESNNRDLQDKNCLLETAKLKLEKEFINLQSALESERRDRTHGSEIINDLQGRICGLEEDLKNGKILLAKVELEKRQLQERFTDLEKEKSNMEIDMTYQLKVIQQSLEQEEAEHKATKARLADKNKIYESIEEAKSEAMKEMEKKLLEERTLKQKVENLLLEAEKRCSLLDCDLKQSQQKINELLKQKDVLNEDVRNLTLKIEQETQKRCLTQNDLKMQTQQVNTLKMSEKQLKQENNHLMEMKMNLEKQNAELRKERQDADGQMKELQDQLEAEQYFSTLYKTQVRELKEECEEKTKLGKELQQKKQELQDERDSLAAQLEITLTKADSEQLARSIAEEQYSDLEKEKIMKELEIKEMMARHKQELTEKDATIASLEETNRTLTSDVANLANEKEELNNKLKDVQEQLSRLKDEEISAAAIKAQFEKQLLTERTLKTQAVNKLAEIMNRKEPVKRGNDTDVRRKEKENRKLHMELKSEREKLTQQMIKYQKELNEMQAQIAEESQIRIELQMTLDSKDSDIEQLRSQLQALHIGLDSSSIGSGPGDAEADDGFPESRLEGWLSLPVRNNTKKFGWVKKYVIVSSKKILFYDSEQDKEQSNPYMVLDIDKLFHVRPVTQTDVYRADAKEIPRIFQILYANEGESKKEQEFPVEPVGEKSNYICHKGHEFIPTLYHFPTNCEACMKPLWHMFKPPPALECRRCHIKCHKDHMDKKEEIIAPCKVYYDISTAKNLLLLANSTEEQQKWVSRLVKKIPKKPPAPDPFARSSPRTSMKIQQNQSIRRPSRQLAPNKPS

| SMILES | inhibition |
| --- | --- |
| C[S+]([O-])c1ccc(-c2nc(-c3ccc(F)cc3)c(-c3ccncc3)[nH]2)cc1 (stereo not given) [SB-203580] | 23% |
| COCCn1c(SC)nc(-c2ccc(F)cc2)c1-c1ccnc(NC2CCCCC2)c1 | 7% |

Each compound was assayed against Tyrosine-protein kinase Lck (Homo sapiens) (UniProt P06239) (assay: Inhibition of human LCK at 10 uM). Details: not given.
Sequence of Tyrosine-protein kinase Lck (Homo sapiens) (P06239 whole entry, looked up): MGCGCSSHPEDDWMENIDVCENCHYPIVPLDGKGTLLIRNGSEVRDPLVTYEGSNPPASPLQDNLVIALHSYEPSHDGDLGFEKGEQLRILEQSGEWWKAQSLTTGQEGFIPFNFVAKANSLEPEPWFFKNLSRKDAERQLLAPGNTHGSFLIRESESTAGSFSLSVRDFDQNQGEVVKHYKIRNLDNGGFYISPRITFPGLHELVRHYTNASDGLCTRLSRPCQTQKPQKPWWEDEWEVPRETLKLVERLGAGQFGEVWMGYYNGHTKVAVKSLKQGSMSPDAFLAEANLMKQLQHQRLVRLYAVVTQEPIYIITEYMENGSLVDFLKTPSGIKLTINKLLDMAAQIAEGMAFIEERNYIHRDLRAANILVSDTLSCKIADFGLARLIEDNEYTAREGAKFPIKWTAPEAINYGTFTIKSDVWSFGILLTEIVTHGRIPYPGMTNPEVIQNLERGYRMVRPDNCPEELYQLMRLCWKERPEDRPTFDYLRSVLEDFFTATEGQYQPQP

| SMILES | inhibition |
| --- | --- |
| C[S+]([O-])c1ccc(-c2nc(-c3ccc(F)cc3)c(-c3ccncc3)[nH]2)cc1 (stereo not given) [SB-203580] | 68% |
| COCCn1c(SC)nc(-c2ccc(F)cc2)c1-c1ccnc(NC2CCCCC2)c1 | 25% |

What follows are compounds tested against T1, CYP1A2 (Homo sapiens, UniProt P05177) (assay: Inhibition of CYP1A2 at 10 uM). Details: not given.
T1 sequence (P05177 whole entry): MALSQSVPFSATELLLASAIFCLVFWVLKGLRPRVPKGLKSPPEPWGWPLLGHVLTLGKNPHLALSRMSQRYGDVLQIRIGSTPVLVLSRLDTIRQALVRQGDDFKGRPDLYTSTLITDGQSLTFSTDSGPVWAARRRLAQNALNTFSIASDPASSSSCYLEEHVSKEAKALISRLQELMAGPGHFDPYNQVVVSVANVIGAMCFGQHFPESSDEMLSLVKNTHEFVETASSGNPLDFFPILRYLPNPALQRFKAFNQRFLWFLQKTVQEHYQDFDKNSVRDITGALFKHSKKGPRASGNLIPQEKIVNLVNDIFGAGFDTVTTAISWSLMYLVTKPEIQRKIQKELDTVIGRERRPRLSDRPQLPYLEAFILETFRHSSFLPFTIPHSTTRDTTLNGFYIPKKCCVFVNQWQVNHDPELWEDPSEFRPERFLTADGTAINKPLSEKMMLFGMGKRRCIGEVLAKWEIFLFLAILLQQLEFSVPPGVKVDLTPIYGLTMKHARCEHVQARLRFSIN
Format: ADME

| SMILES | inhibition at 10 µM |
| --- | --- |
| COCCn1c(SC)nc(-c2ccc(F)cc2)c1-c1ccnc(NC2CCCCC2)c1 | 0% |

These compounds were tested against CYP2C9 (Homo sapiens, UniProt P11712) (assay: Inhibition of CYP2C9 at 10 uM). Details: not given.
Format: ADME

| SMILES | inhibition at 10 µM |
| --- | --- |
| COCCn1c(SC)nc(-c2ccc(F)cc2)c1-c1ccnc(NC2CCCCC2)c1 | 73% |

These compounds were tested against CYP2C19 (Homo sapiens, UniProt P33261) (assay: Inhibition of CYP2C19 at 10 uM). Details: not given.
Format: ADME

| SMILES | inhibition at 10 µM |
| --- | --- |
| COCCn1c(SC)nc(-c2ccc(F)cc2)c1-c1ccnc(NC2CCCCC2)c1 | 80% |

Each compound was assayed against CYP2D6 (Homo sapiens, UniProt P10635) (assay: Inhibition of CYP2D6 at 10 uM). Details: not given.
Format: ADME

| SMILES | inhibition at 10 µM |
| --- | --- |
| COCCn1c(SC)nc(-c2ccc(F)cc2)c1-c1ccnc(NC2CCCCC2)c1 | 54% |

These compounds were tested against CYP3A4 (Homo sapiens, UniProt P08684) (assay: Inhibition of CYP3A4 at 10 uM). Details: not given.
Format: ADME

| SMILES | inhibition at 10 µM |
| --- | --- |
| COCCn1c(SC)nc(-c2ccc(F)cc2)c1-c1ccnc(NC2CCCCC2)c1 | 81% |

Each compound was assayed against T2, Mitogen-activated protein kinase 14 (Homo sapiens, UniProt Q16539) (assay: Inhibition of p38alpha). Details: not given.

| SMILES | IC50 |
| --- | --- |
| COCCn1c(SC)nc(-c2ccc(F)cc2)c1-c1ccnc(NC2CCCCC2)c1 | 42 nM |

These compounds were tested against T2, Mitogen-activated protein kinase 14 (assay: not given). Details: at 10 µM.

| SMILES | inhibition |
| --- | --- |
| COCCn1c(SC)nc(-c2ccc(F)cc2)c1-c1ccnc(NC2CCCCC2)c1 | 100% |

The compounds below were run against Mitogen-activated protein kinase 1 (Homo sapiens) (UniProt P28482) (assay: Inhibition of human MAPK2/ERK2 at 10 uM). Details: not given.

| SMILES | inhibition |
| --- | --- |
| COCCn1c(SC)nc(-c2ccc(F)cc2)c1-c1ccnc(NC2CCCCC2)c1 | 5% |
